Several values for one entry are separate records, joined by “and”; a condition that tells them apart may be missing. Equal entries are not always repeated. Entries after “also recorded” stand apart in the source; their conditions may differ.
Columns and labels:
[1] = test system: Intracellular adhesion molecule-1 (ICAM-1); test: Assay C: ICAM-1 mRNA in heart by TaqMan RT-PCR; format: in vivo, Male Sprague-Dawley rats; conditions: for ICAM mRNA (AU): relative to cyclophilin expression, mean ± SEM, eplerenone dose 100 mg/kg/day; for ICAM (AU): mRNA; for ICAM-1 mRNA expression: myocardium, aldosterone + salt, 7, 14, 30 days, eplerenone 100 mg/kg/day
Experimental: (§1) The procedure of Assay B was expanded upon in a further study. […] Myocardial tissue from animals in each treatment group was examined after 7, 14, or 30 days of treatment.
(§2) Potassium chloride supplementation was added to the saline solution in order to prevent the potential hypokalemia associated with aldosterone excess.
(§3) At the time of the surgery, an Alzet 2002 osmotic minipump (Alza Corp., Palo Alto, Calif.) containing either vehicle (9% ethanol/87% propylene glycol/4% dH2O) or 1.0 mg/mL d-aldosterone (Sigma Chemical, St. Louis, Mo.) was inserted subcutaneously at the nape of the neck. Aldosterone was administered at a dose of 0.75 µg/hour. […] Animals were sacrificed from each group (n=8-13) after 7, 14, or 30 days of treatment.
(§4) The fluorogenic 5′-nuclease assay (TaqMan PCR) using Applied Biosystems' 7700 Sequence Detection System (Applied Biosystems, Foster City, Calif.) allowed for real time detection/quantitation of a specific gene by monitoring the increase in fluorescence of a gene-specific, dye-labeled oligonucleotide probe. Probes for target and reference genes were labeled at the 5′-end with a 6-carboxyfluorescein (6FAM) reporter dye and at the 3′-end with a 6-carboxy-N,N,N′,N′-tetramethylrhodamine (TAMRA) quencher dye. When the probe was annealed to the target gene, fluorescence of 6FAM was prevented by the close proximity of TAMRA. The exonuclease activity of Taq polymerase released the dyes from the oligonucleotide probe by displacing the probe from the target sequence resulting in fluorescence excitation in direct proportion to the amount of target message present. Data analysis was performed using the Sequence Detection System software from Applied Biosystems.
(§5) All primers and probes were designed using Primer Express software supplied with the 7700 Sequence Detection System and synthesized by Applied Biosystems. Standard curves using 5-fold dilutions of total RNA (from 200 ng to 320 pg) were performed to determine the efficiency of each primer/probe set in the TaqMan reaction prior to the analysis of the experimental samples. Primer/probe sets were designed from known sequences of rat genes to be analyzed. All target gene values were normalized to a reference gene, constitutively expressed cyclophilin. Primer/probe set sequences can be found in Table 8.
(§6) RNA was extracted from frozen (−80° C.) rat heart tissue using the Totally RNA Isolation Kit (Ambion, Inc., Austin, Tex.). Tissue was crushed using a stainless steel mortar and pestle, which had been chilled to −80° C. and transferred to a dounce homogenizer (Kontes, Vineland, N.J.) containing 3-10 mL cold denaturation buffer. Tissue was homogenized and transferred to a sterile, 15 mL polypropylene centrifuge tube. An equal volume of phenol:chloroform:isoamyl alcohol (25:24:1) was added, samples were shaken vigorously for 1 min, and incubated on ice for at least 15 min. Samples were centrifuged for 30 min at 10,000g. The aqueous phase was removed, 1/10 volume of a sodium acetate solution (3.0 M NaOAc pH 4.5) was added, samples were shaken or inverted for 10 seconds, and acid-phenol (premixed with isoamyl alcohol):chloroform (5:1, Ambion, Inc.) was added at an volume equivalent to the starting sample volume. Samples were shaken vigorously for 1 min, followed by a 15-min incubation on ice, and centrifuged for 30 min at 10,000 g. The aqueous phase removed and placed in a clean polypropylene tube. An equal volume of isopropanol (Sigma, St. Louis, Mo.) was added and the samples were mixed and incubated overnight at −20° C. The samples were centrifuged for 30 min at 10,000 g, the supernatant was removed and the RNA pellet was resuspended in DNAse/RNAse-free water. Samples were frozen at −80° C. for at least 2 hours, thawed on wet ice, and diluted for quantitation.

[2] = test system: cyclooxgenase-2; test: Assay A: immunostaining of hearts with cyclooxygenase-2 specific antibody; format: in vivo, Male Wistar rats; conditions: angiotensin II infused rats, eplerenone 100 mpk, aldosterone replacement in adrenalectomized rats
Description: Cycloxygenase-2 staining was also observed in the vascular smooth muscle cells of the media of coronary arteries, even when there was no evidence of morphologic alterations or inflammatory aggregates in the perivascular space (FIG. 26).

[3] = test system: cyclooxygenase-2 (COX-2); test: Assay C: COX-2 mRNA in heart by TaqMan RT-PCR; format: in vivo, Male Sprague-Dawley rats; conditions: for COX-2 (AU): mRNA; for COX-2 mRNA expression: myocardium, aldosterone + salt, 7, 14, 30 days, eplerenone 100 mg/kg/day
Experimental: as §1, §2, §3, §4, §5, §6

[4] = group mean, data used for Table 17 (7-day protocol)
[5] = group mean, data used for Table 18 (14-day protocol)
[6] = group mean, data used for Table 19 (30-day protocol)
[7] = individual rats, data used for Table 17 (7-day protocol), incl. rat marked * excluded from statistics, listed as Aldosterone + salt
[8] = individual rats, data used for Table 18 (14-day protocol), incl. rat marked * excluded from statistics, listed as Aldosterone + salt
[9] = individual rats, data used for Table 19 (30-day protocol), incl. rat marked * excluded from statistics, listed as Aldosterone + salt
[10] = individual rats, data used for Table 17 (7-day protocol), incl. rat marked * excluded from statistics, listed as Eplerenone + aldosterone + salt
[11] = individual rats, data used for Table 18 (14-day protocol), incl. rat marked * excluded from statistics, listed as Eplerenone + aldosterone + salt
[12] = individual rats, data used for Table 19 (30-day protocol), incl. rat marked * excluded from statistics, listed as Eplerenone + aldosterone + salt

## C[C@]12CCC(=O)C=C1CC[C@@H]1[C@@H]2[C@@H](O)C[C@]2(C=O)[C@@H](C(=O)CO)CC[C@@H]12 [Aldosterone]
[1]; after 7 days of treatment
  ICAM mRNA (AU): 1.22 AU
[1]; after 14 days of treatment
  ICAM mRNA (AU): 1.47 AU
[1]; after 30 days of treatment
  ICAM mRNA (AU): 1.81 AU
[1]; [4]
  ICAM (AU): 1.22 AU
[1]; [5]
  ICAM (AU): 1.47 AU
[1]; [6]
  ICAM (AU): 1.81 AU
[1]; [7]
  ICAM (AU): 1.39 AU and 0.80 AU and 1.09 AU and 1.61 AU and 1.11 AU and 1.15 AU and 1.56 AU and 1.06 AU and 1.68 AU
[1]; [8]
  ICAM (AU): 1.16 AU and 1.18 AU and 1.75 AU and 1.15 AU and 1.91 AU and 1.19 AU and 1.82 AU and 1.57 AU and 1.84 AU
[1]; [9]
  ICAM (AU): 2.67 AU and 1.63 AU and 1.69 AU and 1.50 AU and 1.54 AU
[1]
  ICAM-1 mRNA expression: upregulated at day 14 and 30
[2]
  Cyclooxygenase-2 expression in the heart (immunostaining): restored the presence of cycloxygenase-2
[3]; [4]
  COX-2 (AU): 2.22 AU
[3]; [5]
  COX-2 (AU): 4.34 AU
[3]; [6]
  COX-2 (AU): 4.53 AU
[3]; [7]
  COX-2 (AU): 2.10 AU and 0.70 AU and 2.01 AU and 2.95 AU and 2.05 AU and 1.94 AU and 3.54 AU and 2.45 AU and 0.82 AU
[3]; [8]
  COX-2 (AU): 7.39 AU and 1.83 AU and 5.80 AU and 2.59 AU and 6.63 AU and 4.18 AU and 3.71 AU and 2.62 AU and 23.34 AU
[3]; [9]
  COX-2 (AU): 4.26 AU and 4.81 AU and 1.54 AU and 3.10 AU and 5.28 AU and 8.20 AU
[3]
  COX-2 mRNA expression: significantly increased

## COC(=O)[C@@H]1CC2=CC(=O)CC[C@]2(C)[C@@]23O[C@@H]2C[C@@]2(C)[C@@H](CC[C@@]24CCC(=O)O4)[C@H]13 [Eplerenone]
[1]; after 7 days of treatment
  ICAM mRNA (AU): 0.83 AU
[1]; after 14 days of treatment
  ICAM mRNA (AU): 1.19 AU
[1]; after 30 days of treatment
  ICAM mRNA (AU): 1.22 AU
[1]; [4]
  ICAM (AU): 0.83 AU
[1]; [5]
  ICAM (AU): 1.19 AU
[1]; [6]
  ICAM (AU): 1.22 AU
[1]; [10]
  ICAM (AU): 0.91 AU and 0.89 AU (2×) and 0.40 AU and 1.23 AU and 0.58 AU and 1.00 AU
[1]; [11]
  ICAM (AU): 1.20 AU and 1.36 AU and 0.95 AU and 1.26 AU and 1.56 AU and 0.98 AU (2×) and 1.51 AU and 0.79 AU and 1.72 AU and 0.83 AU
[1]; [12]
  ICAM (AU): 1.54 AU and 2.06 AU and 1.01 AU and 1.21 AU and 1.26 AU and 1.06 AU and 0.60 AU and 0.99 AU and 2.92 AU
[1]
  ICAM-1 mRNA expression: inhibition; also recorded: significantly reduced
[2]
  Cyclooxygenase-2 expression in the heart (immunostaining): markedly reduced and in most cases completely prevented
[2]; listed as eplerenone
  Cyclooxygenase-2 expression in the heart (immunostaining): prevention
[3]; [4]
  COX-2 (AU): 1.25 AU
[3]; [5]
  COX-2 (AU): 2.02 AU
[3]; [6]
  COX-2 (AU): 2.28 AU
[3]; [10]
  COX-2 (AU): 1.19 AU and 2.85 AU and 0.60 AU (2×) and 1.16 AU and 0.82 AU and 1.86 AU and 0.91 AU
[3]; [11]
  COX-2 (AU): 1.56 AU and 1.04 AU and 0.70 AU and 1.41 AU and 3.78 AU and 1.86 AU and 6.19 AU and 1.87 AU and 0.99 AU and 1.92 AU and 0.86 AU
[3]; [12]
  COX-2 (AU): 2.44 AU and 0.55 AU and 1.97 AU and 3.41 AU and 3.71 AU and 3.04 AU and 2.11 AU and 1.34 AU and 1.92 AU and 12.21 AU
[3]
  COX-2 mRNA expression: inhibition; also recorded: significantly reduced

From patent US6716829B2, “Aldosterone antagonist and cyclooxygenase-2 inhibitor combination therapy to prevent or treat inflammation-related cardiovascular disorders” (Pharmacia Corporation, priority 2000, dated 2004)
